Data: patent US20060183794A1, “Drug composition containing nf-kb inhibitor” (priority 2002, published 2006)

How the values were obtained:
[1] = system: ATL cell lines (MT-1 and TL-Om1); assay: Hoechst staining apoptosis assay, ATL cell lines; assay type: cell-based, human; settings: 10 μg/ml, 72 hours
Procedure: (§1) DHM2EQ was added to the ATL cell lines (MT-1 and TL-Om1) and a control cell line (K562) at a final concentration of 10 μg/ml, followed by incubation for 72 hours. Subsequently, apoptosis was examined by observing nuclear […] or fragmentation on Hoechst staining with a fluorescence microscope. Cells to which the solvent DMSO had been added in equal volume were also examined in the same manner.

[2] = system: cachexia symptoms induced by JCA-1 cells; assay: Cancer cachexia model, JCA-1 tumor-bearing BALB/c nude mice; assay type: in vivo
Procedure: To assay the effect of the compounds represented by the general formula (1) or pharmacologically acceptable salts thereof on cachexia, cachexia-induced BALB/c nude mice were used as model mice of human patients with cachexia. Here, cachexia symptoms were induced using the androgen-insensitive human prostatic cancer cell-line JCA-1.
To measure the effect of DHMEQ on cachexia symptoms, the cachexia model mice were prepared using the aforementioned nude mice. JCA-1 cells (1×10^7 cells) suspended in 100 μl of PBS were inoculated subcutaneously into the flank of six-old-week nude mice (hereafter called tumor-bearing mice). Fourteen days after the inoculation, when the tumors had reached palpable sizes, the inoculated mice were randomly assigned to three groups: group 2 (Gr2; n=13), given DHMEQ (8 mg/kg bw) every day; group 3 (Gr3; n=13), given DMSO every day; and group 4 (Gr4; n=11), given nothing. Group 1 (Gr1; n=14), consisting of normal nude mice not inoculated with JCA-1 cells (hereinafter called “normal mice”), was also included. From the next day of administration of DHMEQ, the body weights (FIG. 20) and the tumor weights (FIG. 21) calculated from the tumor diameters were measured every other day. On day 26 after the start of administration of DHMEQ, all mice were dissected and the tumor weights (FIG. 22), the weights of fat around the testis (FIG. 23) the gastrocnemius weights (FIG. 24), and the hematocrits (FIG. 25; the ratio of the volume of blood cell components to that of whole blood, which can be measured by blood centrifugation) were measured. The measured values were summed up for every group.

[3] = system: cells of multiple myeloma (MM) patients; assay: Hoechst staining apoptosis assay, cells of multiple myeloma patients; assay type: cell-based, human; settings: 10 μg/ml, 72 hours
Procedure: Further, to investigate apoptosis induction of cells of multiple myeloma (MM) patients by DHMEQ, cells of multiple myeloma (MM) patients were incubated for 72 hours at a concentration of 10 μg/ml and the apoptosis was examined by observing nuclear condensation or fragmentation with a fluorescence microscope, using Hoechst staining.

NF-κB [4] = biological target: T1, NF-κB (Homo sapiens, UniProt P19838+Q04206); assay: p6kb-Luc luciferase reporter assay of NF-κB activity in JCA-1 cells; assay type: cell-based; set-up: endogenous in cells; settings: 2.5, 5, 10, 20, 40 μg/ml DHMEQ, 8 hours
Procedure: To measure the inhibitory effect of DHMEQ on activity of NF-κB, the activity of NF-κB on DHMEQ at various concentrations was measured using transcriptional activity of NF-κB as an index. As the reporter, the vector construct (p6kb-Luc), containing a luciferase gene as the reporter in the downstream of the promoter containing six tandem copies of the NF-κB binding sequence, was used. This reporter plasmid was transfected into JCA-1 cells using GenePOETER™ (Gene Therapy Systems). Fourteen hours after the transfection, 2.5, 5, 10, 20, and 40 μg/ml DHMEQ was added to the cell medium, followed by further incubation for 8 hours. Subsequently, cells were recovered and luciferase activity was measured. […] Each luciferase activity was measured and the absolute value was presented by standardization. All experiments were conducted independently three times, producing averages and standard deviations.

K562 = assay: Hoechst staining apoptosis assay, control cell line K562; assay type: cell-based; settings: 10 μg/ml, 72 hours
Procedure: as §1

p65 subunit of NF-κB = biological target: T2, p65 subunit of NF-κB (Homo sapiens, UniProt Q04206); assay: Confocal microscopy of p65 distribution in ATL cell lines; assay type: cell-based; settings: MT-1 and TL-Om1; 10 μg/ml DHM2EQ, 24 hours
T2 construct: endogenous in cells; host or cells: ATL cell lines MT-1 and TL-Om1
Procedure: It is thought that DHM2EQ inhibits nuclear translocation of the p65 subunit of NF-κB. The ATL cell lines (MT-1 and TL-Om1) were treated with 10 μg/ml DHM2EQ for 24 hours and distribution of p65 was examined with a confocal microscope, using fluorescence-labeled anti-p65 antibody. The cell lines not treated with DHM2EQ were also examined in the same manner. In the figure, “−” and “+” indicate the results of DHM2EQ untreatment and DHM2EQ treatment, respectively.

NF-κB [5] = biological target: T1, NF-κB; assay: Reporter gene (luciferase) assay of NF-κB transcriptional activity in ATL cell lines; assay type: cell-based; set-up: endogenous in cells; settings: MT-1 and TL-Om1; 5 μg/ml DHM2EQ; remaining activity vs untreated
Procedure: To examine the transcriptional activity of NF-κB, by using a luciferase construct (6 kB-Luc plasmid), containing six tandem copies of the NF-κB binding sequence, driven with an artificial promoter as a reporter, this plasmid DNA was transiently introduced into the ATL cell lines (MT-1 and TL-Om1) as well as into the control cell line (K562) (transfected on a scale of 2×10^5 cells/transfection using DMRIE-C (Invitrogen)). After 12 hours, treatment with 5 μg/ml DHM2EQ was started. Cells were recovered after 48 hours and the transcriptional activity of NF-κB was evaluated as the enzyme activity of the luciferase. The cell lines not treated with DHM2EQ were also evaluated in the same manner. All experiments were performed three times to obtain average values as well as standard deviations.

[6] = system: adhesion of leukocytes and HL-60 cells to HUVECs; assay: Adhesion of leukocytes and HL-60 cells to TNF-α-stimulated HUVECs; assay type: cell-based, human; settings: DHMEQ 3 μg/ml; TNF-α stimulation 3, 6, 9 hours
Procedure: HUVECs were plated 24 well plates and confluently cultured. The culture medium was composed of 9.8 g/l medium 199 (provided from Nissui), 1.8 g/l NaHCO3 (Wako), 10 ml/l 1M Hepes buffer (Sigma), 30 mg/l ECGS (Becton Dickinson), 6 ml/l heparin sodium injection (Takeda Pharmaceutical), and 10% heat-inactivated FBS (JRH). Subsequently, the following experiments were conducted. […] In this experiment, mononuclear cells isolated by the specific gravity centrifugation method were used as leukocytes.
After stimulation with TNF-α, the wells were washed twice with HBSS+ (provided from Nissui) and the culture medium was changed to 500 μl of a fresh medium composed of 9.8 g/l medium 199 (provided from Nissui), 1.8 g/l NaHCO3 (Wako), 10 ml/l 1M Hepes buffer (Sigma), 30 mg/l ECGS (Becton Dickinson), 6 ml/l heparin sodium injection (Takeda Pharmaceutical), and 10% heat-inactivated FBS (JRH). Leukocytes and HL-60 cells were placed in wells at 2×10^5 cells/well and 7×10^4 cells/well, respectively. […] That state was photographed and the number of cells adhered to HUVECs was counted.

[7] = 8 mg/kg bw every day, day 26, Gr2 vs Gr3 and Gr4

T1 sequence (Q04206 whole entry): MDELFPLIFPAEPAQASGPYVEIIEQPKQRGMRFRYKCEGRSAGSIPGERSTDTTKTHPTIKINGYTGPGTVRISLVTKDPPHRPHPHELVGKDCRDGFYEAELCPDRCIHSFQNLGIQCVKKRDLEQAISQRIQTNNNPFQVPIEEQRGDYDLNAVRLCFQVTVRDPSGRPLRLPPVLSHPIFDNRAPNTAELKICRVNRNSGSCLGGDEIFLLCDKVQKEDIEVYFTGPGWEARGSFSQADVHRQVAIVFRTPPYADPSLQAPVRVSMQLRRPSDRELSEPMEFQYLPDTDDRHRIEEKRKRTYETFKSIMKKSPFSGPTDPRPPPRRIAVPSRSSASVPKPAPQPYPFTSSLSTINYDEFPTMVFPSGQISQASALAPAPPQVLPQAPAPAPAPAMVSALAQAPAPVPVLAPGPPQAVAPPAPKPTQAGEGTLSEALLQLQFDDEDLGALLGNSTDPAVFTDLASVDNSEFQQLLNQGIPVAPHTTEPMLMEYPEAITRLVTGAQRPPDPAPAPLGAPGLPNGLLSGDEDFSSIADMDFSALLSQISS
T1 sequence (P19838 1-433 limits assumed): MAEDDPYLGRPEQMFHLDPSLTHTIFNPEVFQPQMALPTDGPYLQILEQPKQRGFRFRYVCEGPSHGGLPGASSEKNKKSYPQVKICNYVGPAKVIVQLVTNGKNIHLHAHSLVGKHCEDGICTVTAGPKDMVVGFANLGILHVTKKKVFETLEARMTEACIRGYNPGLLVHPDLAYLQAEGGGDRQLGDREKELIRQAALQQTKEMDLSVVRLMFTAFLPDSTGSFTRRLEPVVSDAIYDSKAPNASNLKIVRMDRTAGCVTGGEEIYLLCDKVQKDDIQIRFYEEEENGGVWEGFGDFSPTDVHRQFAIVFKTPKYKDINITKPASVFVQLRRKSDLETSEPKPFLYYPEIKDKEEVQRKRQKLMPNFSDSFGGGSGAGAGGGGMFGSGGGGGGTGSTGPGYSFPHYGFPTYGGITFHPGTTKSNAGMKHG
T2 sequence (Q04206 whole entry): as the sequence (Q04206 whole entry) above

## O=C(NC1=CC(=O)C2OC2C1O)c1ccccc1O (stereo not shown) [DHMEQ, 5,6-epoxy-4-hydroxy-3-salicyloylamino-2-cyclohexenone]
[1]
  apoptosis (nuclear fragmentation, Hoechst staining): apoptosis was induced
[2]; 8 mg/kg bw every day (Gr2) vs Gr3 and Gr4
  body weight reduction: significantly suppressed
[2]; 8 mg/kg bw every day, day 26
  influence on internal organ weights: No unfavorable influence
  regressive effect on tumors (tumor weight): no regressive effect
[2]; [7]
  gastrocnemius weight: weight reduction was significantly suppressed
  hematocrit: significant tendency of recovery
  weight of fat around the testis: weight reduction was significantly suppressed
[3]
  apoptosis (Hoechst staining): induces apoptosis
NF-κB [4]
  NF-κB activity (luciferase) in JCA-1 cells: concentration-dependently inhibits
K562
  apoptosis (Hoechst staining): apoptosis was not observed
p65 subunit of NF-κB
  nuclear translocation of p65: inhibited
NF-κB [5]
  luciferase activity suppressed to (NF-κB transcriptional activity): about 50%
[6]
  adhesion of leukocytes and HL-60 cells to HUVECs: markedly suppressed
